# Reference: ChEMBL document CHEMBL6092180 (Eur J Med Chem, 2024)
# Calls of active or inactive are those of the source. No cut-off for these calls is given here.
# Columns and labels:
# [1] = test system: Candida albicans; assay: Fungicidal activity fluconazole and iodiconazole resistant Candida albicans clinical isolate 17# assessed as decrease in number of fungi at 2 times of MIC measured within 24 hrs by time-kill kinetics assay; assay type: functional, organism-based
# [2] = test system: Candida albicans; assay: Antifungal activity against fluconazole and iodiconazole resistant Candida albicans clinical isolate 17# assessed as inhibition of fungal growth by CLSI M27-A3 guidelines based method; assay type: functional
# [3] = MRT(0 to t) in Sprague-Dawley rat at 3 mg/kg, iv by LC-MS/MS analysis; assay type: ADME, organism-based; settings: in vivo
# [4] = test system: Candida albicans; assay: Effect on sterol composition in Candida albicans SC5314 assessed as eburicol content at 0.05 microg/ml measured after 16 hrs by GC-MS analysis relative to control; assay type: functional; settings: dose 0.05 µg/ml
# [5] = test system: Candida albicans; assay: Antifungal activity against fluconazole-resistant Candida albicans clinical isolate 100 assessed as inhibition of fungal growth by CLSI M27-A3 guidelines based method; assay type: functional
# [6] = test system: Candida albicans; assay: Effect on sterol composition in Candida albicans SC5314 assessed as ergosterol content at 0.05 microg/ml measured after 16 hrs by GC-MS analysis (reference value: 96.96 %); assay type: functional; settings: dose 0.05 µg/ml
# [7] = test system: Candida albicans; assay: Antifungal activity against fluconazole-resistant Candida albicans clinical isolate 632 assessed as inhibition of fungal growth by CLSI M27-A3 guidelines based method; assay type: functional
# [8] = Oral bioavailability in Sprague-Dawley rat at 10 mg/kg by LC-MS/MS analysis; assay type: ADME, organism-based; settings: in vivo
# [9] = test system: Candida albicans; assay: Antibiofilm activity against fluconazole-resistant Candida albicans CPCC400616 assessed as inhibition of metabolic activity of biofilm measured after 24 hrs by XTT reduction assay; assay type: functional
# [10] = Tmax in Sprague-Dawley rat at 10 mg/kg, po by LC-MS/MS analysis; assay type: ADME, organism-based; settings: in vivo
# [11] = test system: Candida albicans; assay: Fungicidal activity fluconazole and iodiconazole resistant Candida albicans clinical isolate 17# assessed as decrease in number of fungi at 4 times of MIC measured within 24 hrs by time-kill kinetics assay; assay type: functional, organism-based
# [12] = Cytotoxicity against HUVEC cells assessed as inhibition of cell growth incubated for 72 hrs by MTT assay; assay type: toxicity, cell-based; settings: human
# [13] = test system: Candida albicans; assay: Antifungal activity against fluconazole-resistant Candida albicans CaR assessed as inhibition of fungal growth by CLSI M27-A3 guidelines based method; assay type: functional
# [14] = test system: Pichia kudriavzevii; assay: Antifungal activity against Candida krusei GIM 2.1 assessed as inhibition of fungal growth by CLSI M27-A3 guidelines based method; assay type: functional
# [15] = test system: Candida albicans; assay: Antibiofilm activity against fluconazole-resistant Candida albicans CPCC400616 assessed as inhibition of metabolic activity of biofilm measured after 6 hrs by XTT reduction assay; assay type: functional
# [16] = test system: Candida albicans; assay: Antifungal activity against Candida albicans SC5314 assessed as inhibition of fungal growth by CLSI M27-A3 guidelines based method; assay type: functional
# [17] = test system: Candida tropicalis; assay: Antifungal activity against Candida tropicalis GIM 2.183 assessed as inhibition of fungal growth by CLSI M27-A3 guidelines based method; assay type: functional
# [18] = Apparent volume of distribution in Sprague-Dawley rat at 3 mg/kg, iv by LC-MS/MS analysis; assay type: ADME, organism-based; settings: in vivo, read-out: Vz
# [19] = test system: Aspergillus fumigatus; assay: Antifungal activity against Aspergillus fumigatus cgmcc 3.7795 assessed as inhibition of fungal growth by CLSI M27-A3 guidelines based method; assay type: functional
# [20] = test system: Candida albicans; assay: Fungicidal activity fluconazole and iodiconazole resistant Candida albicans clinical isolate 17# assessed as decrease in number of fungi at 1 times of MIC measured within 24 hrs by time-kill kinetics assay; assay type: functional, organism-based
# [21] = test system: Candida albicans; assay: Antifungal activity against fluconazole-resistant Candida albicans clinical isolate 904 assessed as inhibition of fungal growth by CLSI M27-A3 guidelines based method; assay type: functional
# [22] = Metabolic stability in human liver microsomes assessed as half-life preincubated for 10 mins followed by NADPH addition and measured after 60 mins by LC-MS/MS analysis; assay type: ADME, Microsome; settings: time 70 min
# [23] = Cytotoxicity against human OVCAR-3 cells assessed as inhibition of cell growth incubated for 72 hrs by MTT assay; assay type: toxicity, cell-based
# [24] = AUC (0 to infinity) in Sprague-Dawley rat at 10 mg/kg, po by LC-MS/MS analysis; assay type: ADME, organism-based; settings: in vivo
# [25] = Tmax in Sprague-Dawley rat at 3 mg/kg, iv by LC-MS/MS analysis; assay type: ADME, organism-based; settings: in vivo
# [26] = Cmax in Sprague-Dawley rat at 3 mg/kg, iv by LC-MS/MS analysis; assay type: ADME, organism-based; settings: in vivo
# [27] = test system: Candida albicans; assay: Antifungal activity against fluconazole-resistant Candida albicans clinical isolate 901 assessed as inhibition of fungal growth by CLSI M27-A3 guidelines based method; assay type: functional
# [28] = test system: Candida albicans; assay: Antifungal activity against Candida albicans GIM 2.194 assessed as inhibition of fungal growth by CLSI M27-A3 guidelines based method; assay type: functional
# [29] = test system: Candida albicans; assay: Fungicidal activity against fluconazole and iodiconazole resistant Candida albicans clinical isolate 17# incubated for 48 hrs by PDA plate based method; assay type: functional
# [30] = Cytotoxicity against HEK293T cells assessed as inhibition of cell growth incubated for 72 hrs by MTT assay; assay type: toxicity, cell-based, HEK-293T; settings: human
# [31] = Half-life in Sprague-Dawley rat at 10 mg/kg, po by LC-MS/MS analysis; assay type: ADME, organism-based; settings: in vivo
# [32] = test system: Candida albicans; assay: Effect on sterol composition in Candida albicans SC5314 assessed as other sterols content at 0.05 microg/ml measured after 16 hrs by GC-MS analysis (reference value: 1.06 %); assay type: functional; settings: dose 0.05 µg/ml
# [33] = Cytotoxicity against human NCI-H460 cells assessed as inhibition of cell growth incubated for 72 hrs by MTT assay; assay type: toxicity, cell-based
# [34] = Clearance in Sprague-Dawley rat at 3 mg/kg, iv by LC-MS/MS analysis; assay type: ADME, organism-based; settings: in vivo
# [35] = test system: Candida albicans; assay: Antifungal activity against fluconazole-resistant Candida albicans clinical isolate 311 assessed as inhibition of fungal growth by CLSI M27-A3 guidelines based method; assay type: functional
# [36] = Cmax in Sprague-Dawley rat at 10 mg/kg, po by LC-MS/MS analysis; assay type: ADME, organism-based; settings: in vivo
# [37] = test system: Candida albicans; assay: Inhibition of hyphal formation in fluconazole-resistant Candida albicans CPCC400616 assessed as reduction in invasive ability at 2 microg/ml measured after 4 hrs by inverted microscopic analysis; assay type: functional, organism-based; settings: dose 2.0 µg/ml
# [38] = test system: Candida parapsilosis; assay: Antifungal activity against Candida parapsilosis GIM 2.190 assessed as inhibition of fungal growth by CLSI M27-A3 guidelines based method; assay type: functional; settings: Lodderomyces parapsilosis
# [39] = Half-life in Sprague-Dawley rat at 3 mg/kg, iv by LC-MS/MS analysis; assay type: ADME, organism-based; settings: in vivo
# [40] = test system: Nakaseomyces glabratus; assay: Antifungal activity against Candida glabrata assessed as inhibition of fungal growth by CLSI M27-A3 guidelines based method; assay type: functional
# [41] = test system: Candida albicans; assay: Effect on sterol composition in Candida albicans SC5314 assessed as obtusifoliol content at 0.05 microg/ml measured after 16 hrs by GC-MS analysis relative to control; assay type: functional; settings: dose 0.05 µg/ml
# [42] = Metabolic stability in human liver microsomes assessed as parent compound remaining preincubated for 10 mins followed by NADPH addition and measured after 60 mins by LC-MS/MS analysis; assay type: ADME, Microsome; settings: time 70 min, read-out: Stability
# [43] = test system: Candida albicans; assay: Effect on sterol composition in Candida albicans SC5314 assessed as 14alpha-demethyllanosterol content at 0.05 microg/ml measured after 16 hrs by GC-MS analysis (reference value: […] %); assay type: functional; settings: dose 0.05 µg/ml
# [44] = test system: Cryptococcus neoformans; assay: Antifungal activity against Cryptococcus neoformans CGMCC 2.3161 assessed as inhibition of fungal growth by CLSI M27-A3 guidelines based method; assay type: functional
# [45] = test system: Candida albicans; assay: Effect on sterol composition in Candida albicans SC5314 assessed as lanosterol content at 0.05 microg/ml measured after 16 hrs by GC-MS analysis relative to control; assay type: functional; settings: dose 0.05 µg/ml
# [46] = AUC (0 to infinity) in Sprague-Dawley rat at 3 mg/kg, iv by LC-MS/MS analysis; assay type: ADME, organism-based; settings: in vivo
# [47] = test system: Candida albicans; assay: Fungicidal activity against Candida albicans SC5314 incubated for 48 hrs by PDA plate based method; assay type: functional
# [48] = test system: Candida albicans; assay: Antifungal activity against fluconazole-resistant Candida albicans clinical isolate 103 assessed as inhibition of fungal growth by CLSI M27-A3 guidelines based method; assay type: functional
compound,measurement,setting,value
C[C@@H](N(C)Cc1ccc(C#Cc2ccc(F)cc2F)cc1)[C@](O)(Cn1cncn1)c1ccc(F)cc1F,Activity,[1],Active
same,MIC80,[2],0.25 µg/mL
same,MRT last,[3],1.92 h
same,Activity,[4],70.13%
same,MIC80,[5],4 µg/mL
same,Activity,[6],0.29%
same,MIC80,[7],4 µg/mL
same,bioavailability,[8],26.3%
same,MIC50,[9],4 µg/mL
same,Tmax,[10],2.33 h
same,Activity,[11],Active; Effectively Kills Fungal Cells In Viable Colony Counts
same,IC50 at 72 h,[12],> 10 µM
same,MIC80,[13],0.25 µg/mL
same,MIC80,[14],0.01 µg/mL
same,MIC50,[15],0.5 µg/mL
same,MIC80,[16],0.006 µg/mL
same,MIC80,[17],0.006 µg/mL
same,Vd,[18],15.7 L/kg
same,MIC80,[19],0.05 µg/mL
same,Activity,[20],Active
same,MIC80,[21],8 µg/mL
same,half-life,[22],0.503 h
same,IC50 at 72 h,[23],> 10 µM
same,AUC(0-inf),[24],1600 ng·h/mL
same,Tmax,[25],4.98 min
same,Cmax,[26],2460 ng/mL
same,MIC80,[27],4 µg/mL
same,MIC80,[28],0.006 µg/mL
same,MFC,[29],1 µg/mL
same,IC50 at 72 h,[30],> 10 µM
same,half-life,[31],4.08 h
same,Activity,[32],3.13%
same,IC50 at 72 h,[33],> 10 µM
same,clearance,[34],27.5 mL/min/kg
same,MIC80,[35],8 µg/mL
same,Cmax,[36],283 ng/mL
same,inhibition,[37],Active; Blockade Of Morphological Transformation Observed
same,MIC80,[38],0.006 µg/mL
same,half-life,[39],6.57 h
same,MIC80,[40],0.01 µg/mL
same,Activity,[41],13.69%
same,remaining at 1 h,[42],25.9%
same,Activity,[43],2.79%
same,MIC80,[44],0.013 µg/mL
same,Activity,[45],9.97%
same,AUC(0-inf),[46],1830 ng·h/mL
same,MFC,[47],0.125 µg/mL
same,MIC80,[48],4 µg/mL
